8 molecules from ChEMBL document CHEMBL1138682, “Fluorescent pirenzepine derivatives as potential bitopic ligands of the human M1 muscarinic receptor” (J Med Chem, 2004) can be followed below.

Assay [1] has as its target T1, Muscarinic acetylcholine receptor M1 (Homo sapiens, UniProt P11229).
T1 sequence (P11229 whole entry): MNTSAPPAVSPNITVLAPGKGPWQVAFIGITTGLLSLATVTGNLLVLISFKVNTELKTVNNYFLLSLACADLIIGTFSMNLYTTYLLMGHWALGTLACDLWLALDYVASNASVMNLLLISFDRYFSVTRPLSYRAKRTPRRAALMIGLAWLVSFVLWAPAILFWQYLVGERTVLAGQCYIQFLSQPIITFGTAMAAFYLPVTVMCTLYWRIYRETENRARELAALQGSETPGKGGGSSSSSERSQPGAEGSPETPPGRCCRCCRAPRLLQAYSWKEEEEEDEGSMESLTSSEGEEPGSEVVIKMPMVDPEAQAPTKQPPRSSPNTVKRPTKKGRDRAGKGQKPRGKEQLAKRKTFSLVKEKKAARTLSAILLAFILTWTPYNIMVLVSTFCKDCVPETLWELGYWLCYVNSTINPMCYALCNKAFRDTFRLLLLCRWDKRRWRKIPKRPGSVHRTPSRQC
The assay is described as follows: Inhibition of [3H]QNB binding to human muscarinic receptor M1.

Assay [2] has as its target T2, Muscarinic acetylcholine receptor M1 (Homo sapiens) (UniProt P11229).
T2 sequence (whole entry): T1 sequence (P11229 whole entry)
The assay is described as follows: Dissociation rate constant for human muscarinic receptor at 200 nM with 500 uM brucine.

Assay [3] concerns the target T2, Muscarinic acetylcholine receptor M1 (Homo sapiens).
Description: Apparent dissociation constant for human muscarinic receptor M1 from FRET binding assay
The target of assay [4] is T1, Muscarinic acetylcholine receptor M1. Kind of assay: Apparent dissociation constant for human muscarinic receptor M1 from FRET based binding assay.
For assay [5], the target named is T2, Muscarinic acetylcholine receptor M1 (Homo sapiens). The assay is described as follows: Dissociation rate constant for human muscarinic receptor at 200 nM with 100 uM brucine.
Assay [6] shares this target. The following applies: 100 nM.
Description: Dissociation rate constant for human muscarinic receptor at 100 nM with 100 uM brucine
Assay [7] shares this target. Conditions: 100 nM. This is another data set of the same source.
Description: Dissociation rate constant for human muscarinic receptor at 100 nM with 500 uM brucine
Assay [8] shares this target. The following applies: 300 nM.
Description: Dissociation rate constant for human muscarinic receptor at 300 nM with 500 uM brucine
Assay [9] shares this target. Conditions: 300 nM. This is another data set of the same source.
Description: Dissociation rate constant for human muscarinic receptor at 300 nM with 100 uM brucine
For assay [10] the target is unchanged. The assay is described as follows: Dissociation rate constant for human muscarinic receptor at 500 nM with 500 uM brucine.
Assay [11] has the same target. Kind of assay: Dissociation rate constant for human muscarinic receptor at 500 nM with 100 uM brucine.

Each structure is given as a SMILES string. pKd, pKi: −log10 of the molar value. A value given as a limit tells only on which side of the number the result lay.

For orientation: pKi means −log10 of the Ki, conventionally taken in molar units. In general, pKd refers to −log10 of the Kd, conventionally taken in molar units. Molecule `O=C(CCC1=[N+]2C(=Cc3ccc(-c4cccs4)n3[B-]2(F)F)C=C1)NCCOCCOCCN1CCN(CC(=O)N2c3ccccc3C(=O)Nc3cccnc32)CC1` had a pKi in assay [1] of 7.34. Also, the Dissociation rate constant in assay [2] is 0.00013 1/S; in assay [5] it was 0.00025 1/S. For the same molecule, the E in assay [3] is 0.6. In addition, in assay [4], the pKd was 7.66.

As to `O=C(CCC1=[N+]2C(=Cc3ccc(-c4cccs4)n3[B-]2(F)F)C=C1)NCCCCCCN1CCN(CC(=O)N2c3ccccc3C(=O)Nc3cccnc32)CC1`, the negative logarithm of the Ki (pKi) in [1] is 8.06. The values for the Dissociation rate constant in assay [6] and in assay [7] were 0.0002 1/S and 7.2e-05 1/S, respectively. In [3], this molecule had an E of 0.63. Moreover, the pKd in [4] was 7.89.

In the case of `O=C(CCC1=[N+]2C(=Cc3ccc(-c4cccs4)n3[B-]2(F)F)C=C1)NCCOCCOCCOCCOCCOCCOCCN1CCN(CC(=O)N2c3ccccc3C(=O)Nc3cccnc32)CC1`, in [1], the negative-log Ki (pKi) is 8.05. The Dissociation rate constant in assay [6] was 0.00023 1/S; in assay [7], 0.00025 1/S. For the same molecule, in [3], the E turned out to be 0.53. Besides, the negative logarithm of the Kd (pKd) in assay [4] is 8.39.

In turn, `O=C(CCCCCNC(=O)CCC1=[N+]2C(=Cc3ccc(-c4cccs4)n3[B-]2(F)F)C=C1)NCCCCCC(=O)NCCCCN1CCN(CC(=O)N2c3ccccc3C(=O)Nc3cccnc32)CC1` had a negative-log Ki (pKi) in [1] of 7.26. Further, the Dissociation rate constant in [2] was 0.00146 1/S; in assay [5], 0.00144 1/S. The same molecule returned an E in assay [3] of 0.51. Besides, the pKd in [4] was 7.90.

In assay [1], `CNC(=O)CCC1=[N+]2C(=Cc3ccc(-c4cccs4)n3[B-]2(F)F)C=C1` gave a negative-log Ki (pKi) of less than 6.00.

Consider `O=C(CCC1=[N+]2C(=Cc3ccc(-c4cccs4)n3[B-]2(F)F)C=C1)NCCN1CCN(CC(=O)N2c3ccccc3C(=O)Nc3cccnc32)CC1`, for which the pKi in assay [1] was less than 6.00.

For `CCN1/C(=C/C=C/C2N(CCCCCC(=O)NCCOCCOCCN3CCN(CC(=O)N4c5ccccc5C(=O)Nc5cccnc54)CC3)c3ccc(S(=O)(=O)O)cc3C2(C)C)C(C)(C)c2cc(S(=O)(=O)O)ccc21` (configuration not stated), the negative-log Ki (pKi) in assay [1] was 6.87. Besides, the Dissociation rate constant is 0.000353 1/S in assay [8] and 0.00039 1/S in [9]. Further, the E in [3] turned out to be 0.6. Further, in [4], the negative-log Kd (pKd) was 7.45.

Regarding `CCN(CC)c1ccc2c(-c3ccc(S(=O)(=O)NCCCCCC(=O)NCCOCCOCCN4CCN(CC(=O)N5c6ccccc6C(=O)Nc6cccnc65)CC4)cc3S(=O)(=O)[O-])c3ccc(=[N+](CC)CC)cc-3oc2c1`, in assay [1], the pKi was 7.27. Besides, the values for the Dissociation rate constant in assay [10] and in [11] were 0.00051 1/S and 0.00062 1/S, respectively. In assay [3], this molecule displayed an E of 0.68. Moreover, the pKd in assay [4] was 7.73.
